From patent US9675701B2, “Coloured disinfectant preparation based on bispyridiniumalkane” (L'AIR LIQUIDE, SOCIETE ANONYME POUR L'ETUDE ET …, priority 2014, dated 2017)

What was measured:
[1] = Efficacy of octenidine in Octeniderm with added dye
Source text: However, blue dyes are not accepted by the market on account of the poor visibility of the vessels under the skin.

S. aureus ATCC 6538 = experiment: Method A: remanence effect of the dried preparation on tiles, germ count determination; format: cell-based; conditions: preliminary experiments with a new type of method
Description: No in-vitro method was hitherto known for being able to rapidly examine (i.e. screen) the potential impairment of the remanent effect of antiseptic active ingredients due to added dyes, and specifically in particular in the presence of large amounts of solvents, such as alcohols. […] 0.2 ml of the test preparation was spread to the edge on a tile measuring 5×5 cm and left to dry optically. Here, solvents evaporate and the antiseptic active ingredient (octenidine was tested) remains on the tile. Then, 0.1 ml of bacteria suspension (test germ S. aureus ATCC 6538, starting germ count of the solution 10^6 CFU/ml, on the tile then 10^5 CFU/ml) is applied to an area of 3×3 cm on the tile. After the corresponding contact time, the tile is transferred to a container filled with glass beads (diameter 3-4 mm) and 10 ml of neutralization solution (TLSH) and shaken for 2 minutes on a horizontal shaker at 200 rpm. Finally, a germ count determination is performed by means of dilution series. The dilution stages 10^0, 10^−1, 10^−2 and 10^−3 are plated out. The agar plates are incubated for 24-48 hours at 36±1° C. The CFU/ml resulting therefrom is used to calculate the logarithmic reduction factor (RF) for the preparations and the water control. A high […] reduction factor means good bactericidal efficacy of the preparation. […]

SMILES | restriction of the efficacy of the octenidine in Octeniderm by the dye [1] | remanence effect of octenidine in preparations which comprise the dye (S. aureus ATCC 6538)
CCN(CC)c1ccc(C(=C2C=CC(=[N+](CC)CC)C=C2)c2cc(O)c(S(=O)(=O)[O-])cc2S(=O)(=O)[O-])cc1.CCN(CC)c1ccc(C(=C2C=CC(=[N+](CC)CC)C=C2)c2cc(O)c(S(=O)(=O)[O-])cc2S(=O)(=O)[O-])cc1.[Ca+2] [Patent Blue V] | no restriction of the efficacy | –
O=C([O-])c1ccccc1-c1c2ccc(=O)cc-2oc2cc([O-])ccc12.[Na+].[Na+] [uranine] | – | inhibited
